Assay results from US10280167B2, “Purine derivatives for the treatment of viral infections” (JANSSEN SCIENCES IRELAND UC, priority 2011, dated 2019).

These molecules were tested on human TLR7 dIRR2 mutant (assay: Reporter assay for TLR7 activity, HEK293 transfected with mutant TLR7 (dIRR2 deletion) and NFκB-luc). Details: lowest effective concentration; 48 h transfection.
Type: cell-based

SMILES	TLR7-dIRR2_LEC 48 h
Nc1nc(-c2ccco2)nc2c1[nH]c(=O)n2Cc1ccccc1 [Compound 20]	0.5 µM
Nc1nc(-c2nc(C3CC3)c[nH]2)nc2c1[nH]c(=O)n2Cc1ccccc1 [Compound 1]	0.18 µM
Cc1nc(-c2nc(N)c3[nH]c(=O)n(Cc4ccccc4)c3n2)[nH]c1C [Compound 7]	1.46 µM
Nc1nc(-c2nc(C(F)(F)F)c[nH]2)nc2c1[nH]c(=O)n2Cc1ccccc1 [Compound 31]	0.51 µM
Nc1nc(-c2nc(C3CC3)c[nH]2)nc2c1[nH]c(=O)n2CC1CCOCC1 [Compound 10]	10.13 µM
CN(C)CCOc1ccc(Cn2c(=O)[nH]c3c(N)nc(-c4nc(C5CC5)c[nH]4)nc32)cn1 [Compound 54]	5.65 µM
COC(=O)COc1ccc(Cn2c(=O)[nH]c3c(N)nc(-c4ncc[nH]4)nc32)cn1 [Compound 57]	0.06 µM
Nc1nc(-c2ccn[nH]2)nc2c1[nH]c(=O)n2Cc1ccccc1 [Compound 23]	0.007 µM
Nc1nc(-c2cnco2)nc2c1[nH]c(=O)n2Cc1ccccc1 [Compound 32]	0.97 µM

Each molecule was assayed on human TLR7 dIRR2 mutant in the same assay as above. Details: lowest effective concentration; 24 h transfection.
Type: cell-based
Procedure: (§1) Reporter Assays for Assessment of TLR7 Activity (24 h)
(§2) The ability of compounds to activate human TLR7 was assessed in a cellular reporter assay using HEK293 cells transiently transfected with a TLR7 or TLR8 expression vector and NFκB-luc reporter construct. In one instance the TLR expression construct expresses the respective wild type sequence or a mutant sequence comprising a deletion in the second leucine-rich repeat (dIRR2) of the TLR.
(§3) Briefly, HEK293 cells were grown in culture medium (DMEM supplemented with 10% FCS and 2 mM Glutamine). For transfection of cells in 10 cm dishes, cells were detached with Trypsin-EDTA, transfected with a mix of CMV-TLR7 or TLR8 plasmid (750 ng), NFκB-luc plasmid (375 ng) and a transfection reagent and incubated 24 hours or 48 hours respectively at 37° C. in a humidified 5% CO2 atmosphere. Transfected cells were then detached with Trypsin-EDTA, washed in PBS and resuspended in medium to a density of 1.67×10^5 cells/mL. Thirty microliters of cells were then dispensed into each well in 384-well plates, where 10 μL of compound in 4% DMSO was already present. Following 6 hours incubation at 37° C., 5% CO2, the luciferase activity was determined by adding 15 μl of Steady Lite Plus substrate (Perkin Elmer) to each well and readout performed on a ViewLux ultraHTS microplate imager (Perkin Elmer). Dose response curves were generated from measurements performed in quadruplicates. Lowest effective concentrations (LEC) values, defined as the concentration that induces an effect which is at least two fold above the standard deviation of the assay, were determined for each compound. Compound toxicity was determined in parallel using a similar dilution series of compound with 30 μL per well of cells transfected with the CMV-TLR7 construct alone (1.67×10^5 cells/mL), in 384-well plates. Cell viability was measured after 6 hours incubation at 37° C., 5% CO2 by adding 15 μL of ATP lite (Perkin Elmer) per well and reading on a ViewLux ultraHTS microplate imager (Perkin Elmer). Data was reported as CC50.

SMILES	TLR7-dIRR2_LEC 24 h
Nc1nc(-c2nc(C3CCCC3)c[nH]2)nc2c1[nH]c(=O)n2Cc1ccccc1 [Compound 3]	7.67 µM
Nc1nc(-c2ccco2)nc2c1[nH]c(=O)n2Cc1ccccc1 [Compound 20]	0.5 µM
Nc1nc(-c2nc(C3CC3)c[nH]2)nc2c1[nH]c(=O)n2Cc1ccccc1 [Compound 1]	0.33 µM
Nc1nc(-c2nc(C3CC3)c[nH]2)nc2c1[nH]c(=O)n2CC1CCOCC1 [Compound 10]	18.93 µM

What follows are molecules tested on Huh-7 luc/neo HCV replicon cells with conditioned media from PBMC (assay: Interferon production in human PBMC (PBMC-HUH7_EC50), HCV replicon readout with conditioned media). Details: Homo sapiens, Huh-7; concentration applied to PBMCs giving 50% reduction of replicon luciferase activity.
Type: cell-based
Procedure: Measurement of Interferon Production in Human PBMC (PBMC-HUH7_EC50)
Activation of human TLR7 results in robust production of interferon by plasmacytoid dendritic cells present in human blood. The potential of compounds to induce interferon was evaluated by looking at the antiviral activity in the HCV replicon system upon incubation with conditioned media from peripheral blood mononuclear cells (PBMC). The HCV replicon assay is based on a bicistronic expression construct, as described by Lohmann et al. (Science (1999) 285: 110-113; Journal of Virology (2003) 77: 3007-15 3019) with modifications described by Krieger et al. (Journal of Virology (2001) 75: 4614-4624). The assay utilized the stably transfected cell line Huh-7 luc/neo harboring an RNA encoding a bicistronic expression construct comprising the wild type NS3-NS5B regions of HCV type 1b translated from an Internal Ribosome Entry Site (IRES) from encephalomyocarditis virus (EMCV), preceded by a reporter gene (Firefly-luciferase) and a selectable marker gene (neoR, neomycine phosphotransferase). The construct is flanked by 5′ and 3′ NTRs (non-translated regions) from HCV type 1b. Continued culture of the replicon cells in the presence of G418 (neoR) is dependent on the replication of the HCV RNA. The stably transfected replicon cells that replicate HCV RNA autonomously and to high levels, encoding inter alia luciferase, were used for profiling of the conditioned cell culture media. Briefly, PBMCs were prepared from buffy coats of at least two donors using a standard Ficoll centrifugation protocol. Isolated PBMCs were resuspended in RPMI medium supplemented with 10% human AB serum and 2×10^5 cells/well were dispensed into 384-well plates containing compounds (70 μL total volume). After overnight incubation, […] was transferred to 384-well plates containing 2.2×10^3 replicon cells/well in 30 μL (plated the day before). Following 24 hours of incubation, replication was measured by assaying luciferase activity using 40 μL/well Steady Lite Plus substrate (Perkin Elmer) and measured with ViewLux ultraHTS microplate imager (Perkin Elmer). The inhibitory activity of each compound on the Huh7-luc/neo cells were reported as EC50 values, defined as the compound concentration applied to the PBMCs resulting in a 50% reduction of luciferase activity which in turn indicates the degree of replication of the replicon RNA on transfer of a defined amount of PBMC culture medium. Recombinant interferon α-2a (Roferon-A) was used as a standard control compound.

SMILES	EC50
Nc1nc(-c2nc(C3CCCC3)c[nH]2)nc2c1[nH]c(=O)n2Cc1ccccc1 [Compound 3]	14000 nM
Nc1nc(-c2ccco2)nc2c1[nH]c(=O)n2Cc1ccccc1 [Compound 20]	680 nM
Nc1nc(-c2nc(C3CC3)c[nH]2)nc2c1[nH]c(=O)n2Cc1ccccc1 [Compound 1]	81 nM
Cc1nc(-c2nc(N)c3[nH]c(=O)n(Cc4ccccc4)c3n2)[nH]c1C [Compound 7]	640 nM
Nc1nc(-c2nc(C(F)(F)F)c[nH]2)nc2c1[nH]c(=O)n2Cc1ccccc1 [Compound 31]	1300 nM
Nc1nc(-c2nc(C3CC3)c[nH]2)nc2c1[nH]c(=O)n2CC1CCOCC1 [Compound 10]	730 nM
CN(C)CCOc1ccc(Cn2c(=O)[nH]c3c(N)nc(-c4nc(C5CC5)c[nH]4)nc32)cn1 [Compound 54]	50 nM
COC(=O)COc1ccc(Cn2c(=O)[nH]c3c(N)nc(-c4ncc[nH]4)nc32)cn1 [Compound 57]	1210 nM
Nc1nc(-c2ccn[nH]2)nc2c1[nH]c(=O)n2Cc1ccccc1 [Compound 23]	130 nM
Nc1nc(-c2cnco2)nc2c1[nH]c(=O)n2Cc1ccccc1 [Compound 32]	1510 nM

These molecules were tested against T1, human TLR7 (Homo sapiens (Human), UniProt Q9NYK1) (assay: Reporter assay for TLR7 activity, HEK293 transiently transfected with wild type TLR7 and NFκB-luc). Details: lowest effective concentration; 24 h transfection.
Type: cell-based
Procedure: as §1, §2, §3

T1 sequence (Q9NYK1 27-1049): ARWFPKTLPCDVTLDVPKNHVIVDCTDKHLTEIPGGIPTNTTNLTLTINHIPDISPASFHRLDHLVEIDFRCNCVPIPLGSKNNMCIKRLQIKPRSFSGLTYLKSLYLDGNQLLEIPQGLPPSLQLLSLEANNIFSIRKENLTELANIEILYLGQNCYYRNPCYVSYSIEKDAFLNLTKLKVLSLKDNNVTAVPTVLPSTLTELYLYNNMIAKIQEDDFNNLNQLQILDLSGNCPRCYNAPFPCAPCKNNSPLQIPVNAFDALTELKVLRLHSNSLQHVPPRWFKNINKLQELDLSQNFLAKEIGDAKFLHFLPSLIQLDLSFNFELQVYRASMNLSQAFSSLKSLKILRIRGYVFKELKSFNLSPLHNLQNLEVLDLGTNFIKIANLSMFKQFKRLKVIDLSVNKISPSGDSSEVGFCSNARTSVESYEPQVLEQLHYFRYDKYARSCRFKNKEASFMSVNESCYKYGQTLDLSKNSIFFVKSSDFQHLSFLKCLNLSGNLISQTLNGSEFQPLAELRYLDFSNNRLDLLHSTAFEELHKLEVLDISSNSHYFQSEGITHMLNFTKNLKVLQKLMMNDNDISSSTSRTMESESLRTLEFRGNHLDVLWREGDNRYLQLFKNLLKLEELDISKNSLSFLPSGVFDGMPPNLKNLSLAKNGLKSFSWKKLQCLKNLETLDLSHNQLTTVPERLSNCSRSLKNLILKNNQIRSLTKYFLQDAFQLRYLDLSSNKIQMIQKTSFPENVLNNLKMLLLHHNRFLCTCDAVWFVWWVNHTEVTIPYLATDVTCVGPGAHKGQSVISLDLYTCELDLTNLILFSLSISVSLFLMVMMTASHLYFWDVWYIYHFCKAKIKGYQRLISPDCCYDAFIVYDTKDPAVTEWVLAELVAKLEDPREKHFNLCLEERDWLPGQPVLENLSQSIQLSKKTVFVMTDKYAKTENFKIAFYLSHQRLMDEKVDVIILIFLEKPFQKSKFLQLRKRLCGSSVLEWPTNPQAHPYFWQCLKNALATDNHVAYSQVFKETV

SMILES	TLR7-wt_LEC 24 h
Nc1nc(-c2nc(C3CCCC3)c[nH]2)nc2c1[nH]c(=O)n2Cc1ccccc1 [Compound 3]	>24.59 µM

What follows are molecules tested on HEK-ISRE-luc cells with conditioned media from PBMC (assay: Interferon production in human PBMC (PBMC HEK-ISRE-luc LEC)). Details: Homo sapiens, PBMC; lowest effective concentration; read-out: PBMC HEK-ISRE-luc (LEC).
Type: cell-based
Procedure: Measurement of Interferon Production in Human PBMC (PBMC HEK-ISRE-Luc LEC)
Activation of human TLR7 results in robust production of interferon by plasmacytoid dendritic cells present in human blood. The potential of compounds to induce interferon was evaluated by determination of interferon in the conditioned media from peripheral blood mononuclear cells (PBMC). The presence of interferon in the samples was determined, using an interferon reporter cell line stably expressing an interferon-stimulated responsive elements (ISRE)-luc reporter construct. The ISRE element with sequence GAAACTGAAACT (SEQ ID NO: 1) is highly responsive to the STAT1-STAT2-IRF9 transcription factor, which becomes activated upon binding of IFN-I to the IFN receptor. Briefly, PBMCs were prepared from buffy coats of at least two donors using a standard Ficoll centrifugation protocol. Isolated PBMCs were resuspended in RPMI medium supplemented with 10% human AB serum and 2×10^5 cells/well were dispensed into 384-well plates containing compounds (70 μL total volume). After overnight incubation of the PBMCs with the compounds, 10 μL of supernatant was transferred to 384-well plates containing 5×10^3 HEK-ISRE-luc cells/well in 30 μL (plated the day before). Following 24 hours of incubation, activation of the ISRE elements was measured by assaying luciferase activity using 40 μL/well Steady Lite Plus substrate (Perkin Elmer) and measured with ViewLux ultraHTS microplate imager (Perkin Elmer). The stimulating activity of each compound on the HEK-ISRE-luc cells was reported as LEC. The LEC in turn indicates the degree of ISRE activation on transfer of a defined amount of PBMC culture medium.
Recombinant interferon alfa-2a (Roferon-A) was used as a standard control compound.

SMILES	minimal effective concentration
Nc1nc(-c2nc(C3CC3)c[nH]2)nc2c1[nH]c(=O)n2Cc1ccccc1 [Compound 1]	0.064 µM
Cc1nc(-c2nc(N)c3[nH]c(=O)n(Cc4ccccc4)c3n2)[nH]c1C [Compound 7]	0.88 µM
Nc1nc(-c2nc(C(F)(F)F)c[nH]2)nc2c1[nH]c(=O)n2Cc1ccccc1 [Compound 31]	2.2 µM
Nc1nc(-c2nc(C3CC3)c[nH]2)nc2c1[nH]c(=O)n2CC1CCOCC1 [Compound 10]	0.44 µM
CN(C)CCOc1ccc(Cn2c(=O)[nH]c3c(N)nc(-c4nc(C5CC5)c[nH]4)nc32)cn1 [Compound 54]	0.07 µM
COC(=O)COc1ccc(Cn2c(=O)[nH]c3c(N)nc(-c4ncc[nH]4)nc32)cn1 [Compound 57]	1.38 µM
Nc1nc(-c2ccn[nH]2)nc2c1[nH]c(=O)n2Cc1ccccc1 [Compound 23]	0.12 µM
Nc1nc(-c2cnco2)nc2c1[nH]c(=O)n2Cc1ccccc1 [Compound 32]	0.97 µM

Each molecule was assayed against T1, human TLR7 (assay: Reporter assay for TLR7 activity, HEK293 transiently transfected with wild type TLR7 and NFκB-luc). Details: lowest effective concentration; 48 h transfection.
Type: cell-based

SMILES	TLR7-wt_LEC 48 h
Nc1nc(-c2ccco2)nc2c1[nH]c(=O)n2Cc1ccccc1 [Compound 20]	6.34 µM
Nc1nc(-c2nc(C3CC3)c[nH]2)nc2c1[nH]c(=O)n2Cc1ccccc1 [Compound 1]	8.25 µM
Cc1nc(-c2nc(N)c3[nH]c(=O)n(Cc4ccccc4)c3n2)[nH]c1C [Compound 7]	>25 µM
Nc1nc(-c2nc(C(F)(F)F)c[nH]2)nc2c1[nH]c(=O)n2Cc1ccccc1 [Compound 31]	23.23 µM
Nc1nc(-c2nc(C3CC3)c[nH]2)nc2c1[nH]c(=O)n2CC1CCOCC1 [Compound 10]	>25 µM
CN(C)CCOc1ccc(Cn2c(=O)[nH]c3c(N)nc(-c4nc(C5CC5)c[nH]4)nc32)cn1 [Compound 54]	16.1 µM
COC(=O)COc1ccc(Cn2c(=O)[nH]c3c(N)nc(-c4ncc[nH]4)nc32)cn1 [Compound 57]	0.44 µM
Nc1nc(-c2ccn[nH]2)nc2c1[nH]c(=O)n2Cc1ccccc1 [Compound 23]	0.23 µM
Nc1nc(-c2cnco2)nc2c1[nH]c(=O)n2Cc1ccccc1 [Compound 32]	6.5 µM
